# ChEMBL document CHEMBL1146072, “Structure-activity relationship studies on N3-substituted willardiine derivatives acting as AMPA or kainate receptor antagonists” (J Med Chem, 2006)
# Calls of active or inactive are those of the source. No cut-off for these calls is given here.
# How the values were obtained:
# [1] = biological target: Glutamate receptor ionotropic, AMPA (Rattus norvegicus, UniProt P19490+P19491+P19492+P19493)
# Description: Antagonist activity against AMPA receptor expressed in motoneurones by inhibition of fDR-VRP in the neonatal rat spinal cord
# [2] = biological target: Glutamate receptor ionotropic, kainate 2 (Rattus norvegicus, UniProt P42260); experiment: Displacement of [3H]kainate from rat GLUK6 expressed in HEK293 cells; type: cell-based
# Sequence of Glutamate receptor ionotropic, kainate 2 (P42260 whole entry): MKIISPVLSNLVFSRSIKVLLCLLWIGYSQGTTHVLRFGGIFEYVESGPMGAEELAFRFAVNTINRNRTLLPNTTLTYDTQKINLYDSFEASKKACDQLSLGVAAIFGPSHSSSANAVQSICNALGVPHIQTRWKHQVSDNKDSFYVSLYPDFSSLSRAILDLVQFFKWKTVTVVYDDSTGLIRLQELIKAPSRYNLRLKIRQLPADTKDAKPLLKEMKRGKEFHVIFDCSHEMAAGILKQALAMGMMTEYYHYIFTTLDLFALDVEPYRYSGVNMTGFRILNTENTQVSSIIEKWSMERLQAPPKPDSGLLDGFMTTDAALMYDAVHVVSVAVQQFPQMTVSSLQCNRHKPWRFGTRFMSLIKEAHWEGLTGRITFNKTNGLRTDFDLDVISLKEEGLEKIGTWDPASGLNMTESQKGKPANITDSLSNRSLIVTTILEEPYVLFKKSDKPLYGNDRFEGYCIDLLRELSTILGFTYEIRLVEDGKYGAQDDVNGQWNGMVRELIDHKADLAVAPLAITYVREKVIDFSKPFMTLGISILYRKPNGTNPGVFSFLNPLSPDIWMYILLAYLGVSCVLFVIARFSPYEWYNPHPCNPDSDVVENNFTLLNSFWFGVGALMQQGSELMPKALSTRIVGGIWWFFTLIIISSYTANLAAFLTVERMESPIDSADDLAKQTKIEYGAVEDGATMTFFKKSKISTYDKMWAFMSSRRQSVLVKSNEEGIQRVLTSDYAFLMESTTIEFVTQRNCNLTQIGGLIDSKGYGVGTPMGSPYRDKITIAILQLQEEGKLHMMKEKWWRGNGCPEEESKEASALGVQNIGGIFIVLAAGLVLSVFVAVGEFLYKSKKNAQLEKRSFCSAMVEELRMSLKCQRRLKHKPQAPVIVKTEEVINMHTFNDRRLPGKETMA
# [3] = biological target: Metabotropic glutamate receptor 5 (Rattus norvegicus) (UniProt P31424); experiment: Activity against DHPG-induced depolarization of neonatal rat motoneurons expressing mGlu5 receptor at 50 uM
# Sequence of Metabotropic glutamate receptor 5 (Rattus norvegicus) (P31424 21-1203 limits assumed): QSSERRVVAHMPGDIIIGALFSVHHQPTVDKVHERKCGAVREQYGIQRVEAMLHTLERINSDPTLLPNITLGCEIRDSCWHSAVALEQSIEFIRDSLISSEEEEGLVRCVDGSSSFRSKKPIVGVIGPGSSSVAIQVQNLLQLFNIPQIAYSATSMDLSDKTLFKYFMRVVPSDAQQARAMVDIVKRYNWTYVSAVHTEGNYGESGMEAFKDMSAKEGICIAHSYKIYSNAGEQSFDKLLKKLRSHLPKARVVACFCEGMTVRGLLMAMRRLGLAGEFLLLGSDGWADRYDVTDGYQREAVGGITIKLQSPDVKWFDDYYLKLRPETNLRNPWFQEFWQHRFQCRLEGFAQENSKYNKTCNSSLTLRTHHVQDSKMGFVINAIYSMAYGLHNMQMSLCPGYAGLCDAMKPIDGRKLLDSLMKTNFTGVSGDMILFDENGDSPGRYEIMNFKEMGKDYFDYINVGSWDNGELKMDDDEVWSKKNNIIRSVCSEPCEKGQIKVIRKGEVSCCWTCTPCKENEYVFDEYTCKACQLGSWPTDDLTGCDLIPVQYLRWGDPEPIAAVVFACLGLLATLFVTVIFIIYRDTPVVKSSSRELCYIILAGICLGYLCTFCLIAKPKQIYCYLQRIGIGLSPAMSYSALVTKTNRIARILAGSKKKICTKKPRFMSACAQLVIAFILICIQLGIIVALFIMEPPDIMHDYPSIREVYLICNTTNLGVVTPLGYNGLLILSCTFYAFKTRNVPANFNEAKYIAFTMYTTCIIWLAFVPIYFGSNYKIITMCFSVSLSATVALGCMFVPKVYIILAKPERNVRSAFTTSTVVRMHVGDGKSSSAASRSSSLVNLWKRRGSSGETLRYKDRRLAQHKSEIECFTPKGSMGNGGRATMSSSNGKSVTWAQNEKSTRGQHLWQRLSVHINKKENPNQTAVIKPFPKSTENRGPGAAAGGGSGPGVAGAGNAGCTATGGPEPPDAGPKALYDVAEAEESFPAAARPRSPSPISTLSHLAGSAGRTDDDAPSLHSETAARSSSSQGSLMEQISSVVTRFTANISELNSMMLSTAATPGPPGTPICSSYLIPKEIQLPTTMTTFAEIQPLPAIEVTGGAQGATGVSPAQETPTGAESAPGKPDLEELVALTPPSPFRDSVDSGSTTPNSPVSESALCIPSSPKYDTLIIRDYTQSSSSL
# [4] = biological target: Glutamate receptor 2 (Homo sapiens) (UniProt P42262); experiment: Inhibition of glutamate-induced calcium influx in HEK293 cells expressing human GLUA2 up to 100 uM; type: functional, cell-based
# Sequence of Glutamate receptor 2 (Homo sapiens) (P42262 whole entry): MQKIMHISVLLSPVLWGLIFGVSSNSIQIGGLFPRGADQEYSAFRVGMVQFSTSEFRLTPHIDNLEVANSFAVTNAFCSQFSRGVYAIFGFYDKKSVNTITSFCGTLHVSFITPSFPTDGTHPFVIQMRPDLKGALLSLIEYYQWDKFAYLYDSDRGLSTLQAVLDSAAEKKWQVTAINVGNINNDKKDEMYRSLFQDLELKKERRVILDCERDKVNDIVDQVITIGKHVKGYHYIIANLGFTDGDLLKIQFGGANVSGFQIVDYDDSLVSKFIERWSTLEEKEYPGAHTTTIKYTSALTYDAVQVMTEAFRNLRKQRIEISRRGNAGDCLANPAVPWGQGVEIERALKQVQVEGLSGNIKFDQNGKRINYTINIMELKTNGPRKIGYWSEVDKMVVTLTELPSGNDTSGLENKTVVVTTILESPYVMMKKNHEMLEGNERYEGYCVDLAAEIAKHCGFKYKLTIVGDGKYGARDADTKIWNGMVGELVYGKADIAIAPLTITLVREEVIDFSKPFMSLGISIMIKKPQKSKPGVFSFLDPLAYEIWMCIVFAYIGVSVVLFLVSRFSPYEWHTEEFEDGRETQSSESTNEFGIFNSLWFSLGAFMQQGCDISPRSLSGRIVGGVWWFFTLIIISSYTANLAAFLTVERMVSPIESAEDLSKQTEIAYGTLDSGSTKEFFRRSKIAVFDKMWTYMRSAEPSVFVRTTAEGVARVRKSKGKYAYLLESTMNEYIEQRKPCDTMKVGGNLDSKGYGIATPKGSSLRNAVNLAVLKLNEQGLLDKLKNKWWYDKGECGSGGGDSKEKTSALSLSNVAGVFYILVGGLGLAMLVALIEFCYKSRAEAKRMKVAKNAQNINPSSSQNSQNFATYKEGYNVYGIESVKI
# [5] = biological target: Glutamate NMDA receptor (Rattus norvegicus) (UniProt P35439+Q00959+Q00960+Q00961+Q62645+Q8VHN2+Q9R1M7); experiment: Activity against NMDA-induced depolarization of neonatal rat motoneurons expressing NMDA receptor at 50 uM; type: protein-complex assay
# Glutamate receptor 4 = Glutamate receptor 4 (Homo sapiens, UniProt P48058); experiment: Inhibition of glutamate-induced calcium influx in HEK293 cells expressing human GLUA4 up to 100 uM; type: functional, cell-based
# [6] = biological target: Glutamate receptor ionotropic, kainate 1 (Homo sapiens, UniProt P39086); experiment: Inhibition of glutamate-induced calcium influx in HEK293 cells expressing human GLUK5 by FLIPR assay; type: functional, cell-based
# Sequence of Glutamate receptor ionotropic, kainate 1 (P39086 whole entry): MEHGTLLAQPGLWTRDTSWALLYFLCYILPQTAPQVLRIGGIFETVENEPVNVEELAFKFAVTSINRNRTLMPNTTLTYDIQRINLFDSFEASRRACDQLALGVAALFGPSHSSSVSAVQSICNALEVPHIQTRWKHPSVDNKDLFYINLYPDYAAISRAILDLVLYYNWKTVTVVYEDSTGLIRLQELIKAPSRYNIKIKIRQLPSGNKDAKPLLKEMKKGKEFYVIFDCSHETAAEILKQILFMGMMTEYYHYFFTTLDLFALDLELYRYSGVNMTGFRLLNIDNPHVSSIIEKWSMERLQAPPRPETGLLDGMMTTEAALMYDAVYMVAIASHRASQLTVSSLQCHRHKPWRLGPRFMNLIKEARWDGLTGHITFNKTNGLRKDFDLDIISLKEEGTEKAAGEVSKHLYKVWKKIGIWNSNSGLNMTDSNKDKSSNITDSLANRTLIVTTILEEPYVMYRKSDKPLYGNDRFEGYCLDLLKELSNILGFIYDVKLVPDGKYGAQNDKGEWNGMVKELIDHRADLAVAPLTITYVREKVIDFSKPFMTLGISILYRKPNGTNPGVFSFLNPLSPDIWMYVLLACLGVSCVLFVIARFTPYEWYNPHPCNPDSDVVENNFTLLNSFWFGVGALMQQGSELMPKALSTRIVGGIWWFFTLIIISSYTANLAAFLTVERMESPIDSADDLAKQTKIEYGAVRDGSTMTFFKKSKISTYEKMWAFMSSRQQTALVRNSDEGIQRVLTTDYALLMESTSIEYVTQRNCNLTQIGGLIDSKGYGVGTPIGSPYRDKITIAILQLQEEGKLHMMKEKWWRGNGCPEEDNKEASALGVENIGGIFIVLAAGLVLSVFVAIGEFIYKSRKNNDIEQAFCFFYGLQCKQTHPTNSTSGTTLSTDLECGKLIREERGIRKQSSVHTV
# [7] = Inhibition of glutamate-induced calcium influx in HEK293 cells expressing human GLUK5/GLUK6 by FLIPR assay; type: functional, cell-based
# Glutamate receptor 1 [8] = biological target: T1, Glutamate receptor 1 (Homo sapiens, UniProt P42261); experiment: Inhibition of glutamate-induced calcium influx in HEK293 cells expressing human GLUA1 up to 100 uM; type: functional, cell-based
# T1 sequence (P42261 whole entry): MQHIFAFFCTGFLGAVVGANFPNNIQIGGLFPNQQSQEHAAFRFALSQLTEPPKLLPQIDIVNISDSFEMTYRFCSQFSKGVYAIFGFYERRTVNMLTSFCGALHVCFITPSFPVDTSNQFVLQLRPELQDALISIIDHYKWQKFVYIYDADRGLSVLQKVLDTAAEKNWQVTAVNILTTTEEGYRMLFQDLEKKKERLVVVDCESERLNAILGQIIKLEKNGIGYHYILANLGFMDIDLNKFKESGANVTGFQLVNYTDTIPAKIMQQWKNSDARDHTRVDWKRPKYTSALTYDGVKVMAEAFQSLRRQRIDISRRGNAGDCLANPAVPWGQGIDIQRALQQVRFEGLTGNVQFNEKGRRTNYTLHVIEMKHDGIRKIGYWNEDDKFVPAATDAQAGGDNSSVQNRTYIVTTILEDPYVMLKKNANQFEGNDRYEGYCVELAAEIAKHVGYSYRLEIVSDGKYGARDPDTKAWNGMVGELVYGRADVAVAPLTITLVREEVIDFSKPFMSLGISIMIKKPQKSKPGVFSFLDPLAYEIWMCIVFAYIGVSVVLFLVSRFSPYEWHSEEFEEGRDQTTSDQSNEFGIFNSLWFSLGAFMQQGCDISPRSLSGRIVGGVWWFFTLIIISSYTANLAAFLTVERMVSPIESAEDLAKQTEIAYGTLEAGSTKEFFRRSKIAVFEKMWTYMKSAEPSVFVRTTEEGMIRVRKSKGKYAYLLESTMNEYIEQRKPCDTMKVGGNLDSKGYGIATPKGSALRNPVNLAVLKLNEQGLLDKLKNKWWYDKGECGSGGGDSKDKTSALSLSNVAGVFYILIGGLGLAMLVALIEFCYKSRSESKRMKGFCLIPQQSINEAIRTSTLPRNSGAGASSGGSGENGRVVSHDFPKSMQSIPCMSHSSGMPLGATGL
# [9] = Inhibition of glutamate-induced calcium influx in HEK293 cells expressing human GLUK5/GLUK2 by FLIPR assay; type: functional, cell-based
# [10] = biological target: Metabotropic glutamate receptor 1 (Rattus norvegicus) (UniProt P23385); experiment: Activity against DHPG-induced depolarization of neonatal rat motoneurons expressing mGlu1 receptor at 50 uM
# Glutamate receptor 1 [11] = biological target: T1, Glutamate receptor 1; experiment: Inhibition of glutamate-induced calcium influx in HEK293 cells expressing human GLUA1; type: functional, cell-based
# [12] = Induction of calcium influx in HEK293 cells expressing human GLUK5/GLUK2 by FLIPR assay
# [13] = Induction of calcium influx in HEK293 cells expressing human GLUK5/GLUK6 by FLIPR assay
IC50 [1] [µM],Ki [2] [µM],Compound,further results
49,> 100,N[C@@H](Cn1ccc(=O)n(Cc2ccc(S(=O)(=O)O)cc2)c1=O)C(=O)O,
107,> 1000,NC(Cn1ccc(=O)n(Cc2ccc(P(=O)(O)O)cc2)c1=O)C(=O)O (racemic),
31.2,> 100,N[C@@H](Cn1ccc(=O)n(Cc2ccsc2C(=O)O)c1=O)C(=O)O,Activity [3]: inactive; Activity [4]: inactive; Kd [1]: 71.4 µM; Activity [5]: inactive; Activity (Glutamate receptor 4): inactive; IC50 [6]: 0.68 µM; IC50 [7]: 0.62 µM; Activity (Glutamate receptor 1 [8]): inactive; IC50 [9]: 1.21 µM; Activity [10]: inactive
> 100,,N[C@@H](Cn1ccc(=O)n(Cc2ccccc2P(=O)(O)O)c1=O)C(=O)O,
11.7,> 100,N[C@@H](Cn1ccc(=O)n(Cc2ccoc2C(=O)O)c1=O)C(=O)O,
45.4,> 100,N[C@@H](Cn1ccc(=O)n(Cc2nn[nH]n2)c1=O)C(=O)O,
> 100,> 1000,N[C@H](Cn1ccc(=O)n(Cc2ccsc2C(=O)O)c1=O)C(=O)O,
50.9,,N[C@@H](Cn1ccc(=O)n(Cc2ccc(-c3nn[nH]n3)cc2)c1=O)C(=O)O,

# The next lines start with the compound.
Compound,IC50 [1] [µM],Ki [2] [µM],further results
N[C@@H](Cn1ccc(=O)n(CCc2nnn[nH]2)c1=O)C(=O)O,6.87,> 100,
N[C@@H](Cn1ccc(=O)n(CCC(=O)O)c1=O)C(=O)O,,> 1000,
NS(=O)(=O)c1cccc2c1c([N+](=O)[O-])cc1nc(O)c(O)nc12 [NBQX],,,IC50 (Glutamate receptor 1 [11]): 6 µM; IC50 [7]: 28 µM; IC50 [9]: 50 µM
N[C@@H](CCC(=O)O)C(=O)O [GLUTAMIC ACID],,,EC50 [12]: 35 µM; EC50 [13]: 27 µM
N[C@@H](Cn1cc(I)c(=O)n(CCc2nn[nH]n2)c1=O)C(=O)O,3.73,,
